{"source": "paper PMC8423723", "about": "“Regulation of cadherin dimerization by chemical fragments as a trigger to inhibit cell adhesion” (Communications Biology, 2021)", "key": {"EC12 (P-cadherin)": {"biological_target": "T1, EC12 (P-cadherin) (Homo sapiens, UniProt P22223)", "T1 construct": "gene CDH3; EC1-EC2, residues 1-241, wild type; E. coli, SUMO cut; amine-coupled to CM5 chip", "T1 sequence (P22223 108-348)": "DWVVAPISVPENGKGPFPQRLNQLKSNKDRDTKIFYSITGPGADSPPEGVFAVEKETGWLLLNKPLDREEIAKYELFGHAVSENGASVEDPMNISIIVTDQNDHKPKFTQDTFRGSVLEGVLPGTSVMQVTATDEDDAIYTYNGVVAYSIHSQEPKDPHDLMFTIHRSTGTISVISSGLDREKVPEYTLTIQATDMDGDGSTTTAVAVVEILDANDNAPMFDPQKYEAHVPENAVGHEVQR", "test": "SPR ABA assay, disruption of EC12 dimer on chip", "type": "binding", "conditions": "100 µM compound, 2 µM EC12 in solution A"}, "[1]": {"biological_target": "T2, REC12 (P-cadherin monomer mutant) (Homo sapiens, UniProt P22223, INS0R)", "T2 construct": "gene CDH3; EC12 (EC1-EC2, residues 1-241) with Arg inserted at N terminus; biotinylated for chip capture; E. coli Rosetta2(DE3), SUMO tag cut with Ulp1; monomer", "T2 sequence (P22223 107-348, stated change not applied)": "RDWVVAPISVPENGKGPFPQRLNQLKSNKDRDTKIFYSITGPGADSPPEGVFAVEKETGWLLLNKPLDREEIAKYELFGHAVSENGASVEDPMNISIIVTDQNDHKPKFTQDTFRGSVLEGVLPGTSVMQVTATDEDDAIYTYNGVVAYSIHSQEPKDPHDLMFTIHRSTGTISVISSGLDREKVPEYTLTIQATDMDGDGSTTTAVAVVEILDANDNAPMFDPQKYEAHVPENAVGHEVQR", "test": "SPR, Scatchard analysis of equilibrium responses", "type": "binding"}, "[2]": {"biological_target": "T3, REC12 (P-cadherin monomer mutant) (Homo sapiens, UniProt P22223)", "T3 construct": "gene CDH3", "T3 sequence (P22223 107-348, change not shown)": "as the sequence (P22223 107-348, stated change not applied) above", "conditions": "pH 7.5, 25 °C, 3 mM CaCl2, 5% DMSO; construct printed only as P-cadherin"}, "[3]": {"biological_target": "C-terminally His-tagged P-cadherin MEC12 (X dimer), on liposomes (human)"}, "[4]": {"biological_target": "P-cadherin MEC12 (X dimer) K14A", "test": "SEC-MALS", "conditions": "N = 1; parent: est. 33; read off a plot"}}, "data": [{"molecule": "Cc1[nH]c2ccc(Cl)cc2c1CCN", "note": "[Hit 1]", "values": [{"measurement": "SPR ABA assay, disruption of EC12 dimer on chip", "setting": "EC12 (P-cadherin)", "result": "These compounds bound to and disrupted the dimerization"}, {"measurement": "Kd", "setting": "[1]", "result": "~916", "unit": "µM"}]}, {"molecule": "NCCc1c[nH]c2ccccc12", "note": "[tryptamine]", "values": [{"measurement": "SPR direct binding", "setting": "[2]", "result": "only tryptamine bound to P-cadherin"}]}, {"molecule": "C-terminally His-tagged P-cadherin MEC12 (X dimer), on liposomes (domain or fragment)", "values": [{"measurement": "kobs of liposome aggregation (optical density at 650 nm after addition of CaCl2, one-phase association), in the absence of Hit 1; no aggregation with EDTA or without MEC12", "setting": "[3]", "result": 0.0086}, {"measurement": "kobs of liposome aggregation (optical density at 650 nm after addition of CaCl2, one-phase association), in the presence of Hit 1", "setting": "[3]", "result": 0.0033}]}, {"molecule": "P-cadherin MEC12 (X dimer) as used in SEC-MALS and HDX-MS K14A", "values": [{"measurement": "other: molecular weight (SEC-MALS)", "setting": "[4]", "result": 24, "unit": "kDa"}]}]}
